Experiments:
human alpha 7-wt nAChR = target: T1, human alpha 7-wt nAChR (Homo sapiens, UniProt P36544); assay: Ca2+ flux imaging (FDSS) (Protocol B); type: cell-based; conditions: for EC50: potentiation of 100 μM choline, compounds 0.01 μM to 30 μM, read-out: a7-PAM-G_[33]_pEC50 pEC50 (converted); for Emax: efficacy of 100 μM choline defined as 100% in the absence of a PAM, read-out: a7-PAM-G_[33]_Eff_Curve_FI % Efficacy
T1 construct: expressed in transfected cells
Outline: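 Fluo-4AM-loaded cells expressing human α7-wt nAChR, in HBSS with 10 mM HEPES, 5 mM CaCl2, 0.1% BSA, received compound (0.01–30 μM), typically 10 min before 100 μM choline, with calcium flux read in real time. Potentiation is relative to choline alone (100%); EC50 from sigmoidal curves.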

T1 sequence (P36544 23-502): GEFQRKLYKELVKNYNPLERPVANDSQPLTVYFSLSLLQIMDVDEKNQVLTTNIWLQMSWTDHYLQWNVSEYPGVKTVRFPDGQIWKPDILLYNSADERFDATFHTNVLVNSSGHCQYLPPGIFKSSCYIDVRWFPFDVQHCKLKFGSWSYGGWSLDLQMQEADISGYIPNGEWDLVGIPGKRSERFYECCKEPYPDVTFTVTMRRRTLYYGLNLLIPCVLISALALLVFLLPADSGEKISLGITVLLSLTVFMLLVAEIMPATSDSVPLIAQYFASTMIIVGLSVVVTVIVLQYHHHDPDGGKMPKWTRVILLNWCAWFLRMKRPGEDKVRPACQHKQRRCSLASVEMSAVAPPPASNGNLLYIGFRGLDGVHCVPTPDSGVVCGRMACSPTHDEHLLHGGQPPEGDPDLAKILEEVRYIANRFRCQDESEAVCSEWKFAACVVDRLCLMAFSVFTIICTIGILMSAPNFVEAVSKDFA

| EC50 (human alpha 7-wt nAChR) [nM] | melting point [°C] | Emax (human alpha 7-wt nAChR) [%] | Compound |
| --- | --- | --- | --- |
| 5.5 | 187 | – | Cc1cc(-c2sc(N3C[C@@H](C)O[C@@H](C)C3)nc2CNC(=O)c2ccc(F)c(F)c2C)cc(C)n1 [Compound 38, N-[[2-[(2R,6S)-2,6-dimethyl-4-morpholinyl]-5-(2,6-dimethyl-4-pyridinyl)-4-thiazolyl]methyl]-3,4-difluoro-2-methyl-benzamide] |
| 102 | 155 | 657 | CCCC(=O)NCc1nc(N2C[C@@H](C)O[C@@H](C)C2)sc1-c1cc(C)nc(C)c1 [Compound 41, N-[[2-[(2R,6S)-2,6-dimethyl-4-morpholinyl]-5-(2,6-dimethyl-4-pyridinyl)-4-thiazolyl]methyl]-butanamide] |
| 10.5 | 184 | 827 | Cc1cc(-c2sc(N3C[C@@H](C)O[C@@H](C)C3)nc2CNC(=O)CC(C)C)cc(C)n1 [Compound 42, N-[[2-[(2R,6S)-2,6-dimethyl-4-morpholinyl]-5-(2,6-dimethyl-4-pyridinyl)-4-thiazolyl]methyl]-3-methyl-butanamide] |
| 282 | 180 | 607 | Cc1cc(-c2sc(N3C[C@@H](C)O[C@@H](C)C3)nc2CNC(=O)c2cccc(C(F)(F)F)c2)cc(C)n1 [Compound 44, N-[[2-[(2R,6S)-2,6-dimethyl-4-morpholinyl]-5-(2,6-dimethyl-4-pyridinyl)-4-thiazolyl]methyl]-3-(trifluoromethyl)-benzamide] |
| 355 | 175 | 566 | Cc1cc(-c2sc(N3C[C@@H](C)O[C@@H](C)C3)nc2CNC(=O)c2ccc3c(c2)OC(F)(F)O3)cc(C)n1 [Compound 45, N-[[2-[(2R,6S)-2,6-dimethyl-4-morpholinyl]-5-(2,6-dimethyl-4-pyridinyl)-4-thiazolyl]methyl]-2,2-difluoro-1,3-benzodioxole-5-carboxamide] |
| 331 | 185 | 610 | Cc1cc(-c2sc(N3C[C@@H](C)O[C@@H](C)C3)nc2CNC(=O)c2cccc3c2OC(F)(F)O3)cc(C)n1 [Compound 46, N-[[2-[(2R,6S)-2,6-dimethyl-4-morpholinyl]-5-(2,6-dimethyl-4-pyridinyl)-4-thiazolyl]methyl]-2,2-difluoro-1,3-benzodioxole-4-carboxamide] |
| 26.3 | 153 | – | Cc1cc(-c2sc(N3C[C@@H](C)O[C@@H](C)C3)nc2CNC(=O)CC2CCC2)cc(C)n1 [Compound 49, N-[[2-[(2R,6S)-2,6-dimethyl-4-morpholinyl]-5-(2,6-dimethyl-4-pyridinyl)-4-thiazolyl]methyl]-cyclobutaneacetamide] |
| 66.1 | 168 | 953 | Cc1cc(-c2sc(N3C[C@@H](C)O[C@@H](C)C3)nc2CNC(=O)CCC2CC2)cc(C)n1 [Compound 50, N-[[2-[(2R,6S)-2,6-dimethyl-4-morpholinyl]-5-(2,6-dimethyl-4-pyridinyl)-4-thiazolyl]methyl]-cyclopropanepropanamide] |
| 1820 | 197 | 969 | Cc1cc(-c2sc(N3CCOCC3)nc2CNC(=O)c2cc(C)on2)cc(C)n1 [Compound 63, N-[[5-(2,6-dimethyl-4-pyridinyl)-2-(4-morpholinyl)-4-thiazolyl]methyl]-5-methyl-3-isoxazolecarboxamide] |
| – | 188 | 980 | Cc1cc(-c2sc(N3CCOCC3)nc2CNC(=O)CC2CC2)cc(C)n1 [Compound 64, N-[[5-(2,6-dimethyl-4-pyridinyl)-2-(4-morpholinyl)-4-thiazolyl]methyl]-cyclopropaneacetamide] |
| 3240 | 188 | – | Cc1cc(-c2sc(N3CCOCC3)nc2CNC(=O)C2CCC2)cc(C)n1 [Compound 65, N-[[5-(2,6-dimethyl-4-pyridinyl)-2-(4-morpholinyl)-4-thiazolyl]methyl]-cyclobutanecarboxamide] |
| 1200 | 210 | – | Cc1cc(-c2sc(N3CCOCC3)nc2CNC(=O)c2ccc(F)cc2)cc(C)n1 [Compound 66, N-[[5-(2,6-dimethyl-4-pyridinyl)-2-(4-morpholinyl)-4-thiazolyl]methyl]-4-fluoro-benzamide] |
| 5370 | 178 | 959 | CCCC(=O)NCc1nc(N2CCOCC2)sc1-c1cc(C)nc(C)c1 [Compound 67, N-[[5-(2,6-dimethyl-4-pyridinyl)-2-(4-morpholinyl)-4-thiazolyl]methyl]-butanamide] |
| 661 | 221 | 902 | Cc1cc(-c2sc(N3CCOCC3)nc2CNC(=O)c2ccc(F)cc2C)cc(C)n1 [Compound 80, N-[[5-(2,6-dimethyl-4-pyridinyl)-2-(4-morpholinyl)-4-thiazolyl]methyl]-4-fluoro-2-methyl-benzamide] |
| 479 | 153 | 477 | Cc1cc(-c2sc(N3C[C@@H](C)O[C@@H](C)C3)nc2CNC(=O)c2cccc(F)c2)ccn1 [Compound 93, N-[[2-[(2R,6S)-2,6-dimethyl-4-morpholinyl]-5-(2-methyl-4-pyridinyl)-4-thiazolyl]methyl]-3-fluoro-benzamide] |
| 479 | 225 | 420 | Cc1cc(-c2sc(N3C[C@@H](C)O[C@@H](C)C3)nc2CNC(=O)c2ccc(F)cc2)ccn1 [Compound 94, N-[[2-[(2R,6S)-2,6-dimethyl-4-morpholinyl]-5-(2-methyl-4-pyridinyl)-4-thiazolyl]methyl]-4-fluoro-benzamide] |
| 676 | 173 | 420 | Cc1cc(-c2sc(N3C[C@@H](C)O[C@@H](C)C3)nc2CNC(=O)C2CCCC2)c(C)cn1 [Compound 96, N-[[2-[(2R,6S)-2,6-dimethyl-4-morpholinyl]-5-(2,5-dimethyl-4-pyridinyl)-4-thiazolyl]methyl]-cyclopentanecarboxamide] |
| 3020 | 138 | 424 | Cc1cc(-c2sc(N3C[C@@H](C)O[C@@H](C)C3)nc2CNC(=O)CC2CC2)c(C)cn1 [Compound 97, N-[[2-[(2R,6S)-2,6-dimethyl-4-morpholinyl]-5-(2,5-dimethyl-4-pyridinyl)-4-thiazolyl]methyl]-cyclopropaneacetamide] |
| 4070 | 155 | – | Cc1cc(-c2sc(N3C[C@@H](C)O[C@@H](C)C3)nc2CNC(=O)c2cc(C)on2)c(C)cn1 [Compound 98, N-[[2-[(2R,6S)-2,6-dimethyl-4-morpholinyl]-5-(2,5-dimethyl-4-pyridinyl)-4-thiazolyl]methyl]-5-methyl-3-isoxazolecarboxamide] |
| 7410 | 178 | – | C[C@@H]1CN(c2nc(CNC(=O)CC3CC3)c(-c3ccncc3)s2)C[C@H](C)O1 [Compound 99, N-[[2-[(2R,6S)-2,6-dimethyl-4-morpholinyl]-5-(4-pyridinyl)-4-thiazolyl]methyl]-cyclopropaneacetamide] |
| 1820 | 182 | – | Cc1cc(C(=O)NCc2nc(N3C[C@@H](C)O[C@@H](C)C3)sc2-c2ccncc2)no1 [Compound 100, N-[[2-[(2R,6S)-2,6-dimethyl-4-morpholinyl]-5-(4-pyridinyl)-4-thiazolyl]methyl]-5-methyl-3-isoxazolecarboxamide] |
| 347 | 161 | 982 | Cc1cc(F)ccc1C(=O)NCc1nc(N2C[C@@H](C)O[C@@H](C)C2)sc1-c1ccncc1 [Compound 102, N-[[2-[(2R,6S)-2,6-dimethyl-4-morpholinyl]-5-(4-pyridinyl)-4-thiazolyl]methyl]-4-fluoro-2-methyl-benzamide] |
| 1290 | 173 | – | CC(C)CC(=O)NCc1nc(N2C[C@@H](C)O[C@@H](C)C2)sc1-c1ccncc1 [Compound 103, N-[[2-[(2R,6S)-2,6-dimethyl-4-morpholinyl]-5-(4-pyridinyl)-4-thiazolyl]methyl]-3-methyl-butanamide] |
| – | 191 | 812 | Cc1cc(C(=O)NCc2nc(N3CCOCC3)sc2-c2ccncc2)no1 [Compound 111, 5-methyl-N-[[2-(4-morpholinyl)-5-(4-pyridinyl)-4-thiazolyl]methyl]-3-isoxazolecarboxamide] |
| – | 135 | 525 | O=C(CC1CC1)NCc1nc(N2CCOCC2)sc1-c1ccncc1 [Compound 112, N-[[2-(4-morpholinyl)-5-(4-pyridinyl)-4-thiazolyl]methyl]-cyclopropaneacetamide] |
| 2750 | 191 | 730 | Cc1cc(F)ccc1C(=O)NCc1nc(N2CCOCC2)sc1-c1ccncc1 [Compound 113, 4-fluoro-2-methyl-N-[[2-(4-morpholinyl)-5-(4-pyridinyl)-4-thiazolyl]methyl]-benzamide] |
| – | 234 | 313 | Cc1nocc1C(=O)NCc1nc(N2CCOCC2)sc1-c1ccncc1 [Compound 114, 3-methyl-N-[[2-(4-morpholinyl)-5-(4-pyridinyl)-4-thiazolyl]methyl]-4-isoxazolecarboxamide] |

| Compound | EC50 (human alpha 7-wt nAChR) [nM] | melting point [°C] | Emax (human alpha 7-wt nAChR) [%] |
| --- | --- | --- | --- |
| Cc1cc(-c2sc(N3C[C@@H](C)O[C@@H](C)C3)nc2CNC(=O)C2C(C)(C)C2(C)C)cc(C)n1 [Compound 43, N-[[2-[(2R,6S)-2,6-dimethyl-4-morpholinyl]-5-(2,6-dimethyl-4-pyridinyl)-4-thiazolyl]methyl]-2,2,3,3-tetramethyl-cyclopropanecarboxamide] | 60.3 | 197 | 663 |

— US8637510B2, “Morpholinothiazoles as alpha 7 positive allosteric modulators” (Janssen Pharmaceutica NV, priority 2009, dated 2014)
